The subject of this test is P388 leukemia ip, CD2F1 mice, survival T/C. The test is described as follows: NCI In Vivo Anticancer Drug Screen. Data for tumor model P388 Leukemia (intraperitoneal) in CD2F1 (CDF1) mice. The note with it: endpoint: median survival time, higher = longer survival. In outline:
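Mice carrying the transplanted tumor received test compound or vehicle. Survival was recorded in each group, and the value is the treated-group measurement divided by that of the vehicle-treated control group.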

Setting [1] is: dose: 12.5 mg/kg/injection, schedule: Q01DX009 (ip), vehicle: saline with Tween-80.
The mark [2] stands for this setting: dose: 50.0 mg/kg/injection, schedule: Q01DX009 (ip), vehicle: saline with Tween-80.
[3] abbreviates: dose: 100.0 mg/kg/injection, schedule: Q01DX009 (ip), vehicle: saline with Tween-80.
Where [4] appears, read: dose: 200.0 mg/kg/injection, schedule: Q01DX009 (ip), vehicle: saline with Tween-80.
Where [5] appears, read: dose: 50.0 mg/kg/injection, schedule: Q01DX009 (ip), vehicle: saline.
Setting [6] is: dose: 100.0 mg/kg/injection, schedule: Q01DX009 (ip), vehicle: saline.
[7] abbreviates: dose: 200.0 mg/kg/injection, schedule: Q01DX009 (ip), vehicle: saline.
[8] abbreviates: dose: 50.0 mg/kg/injection, schedule: Q01DX009 (ip), vehicle: Klucel (hydroxypropylcellulose) (HPC).
Setting [9] is: dose: 100.0 mg/kg/injection, schedule: Q01DX009 (ip), vehicle: Klucel (hydroxypropylcellulose) (HPC).
Setting [10] is: dose: 200.0 mg/kg/injection, schedule: Q01DX009 (ip), vehicle: Klucel (hydroxypropylcellulose) (HPC).
[11] abbreviates: dose: 100.0 mg/kg/injection, schedule: Q01DX001 (ip), vehicle: Klucel (hydroxypropylcellulose) (HPC).
Where [12] appears, read: dose: 50.0 mg/kg/injection, schedule: Q01DX005 (ip), vehicle: Klucel (hydroxypropylcellulose) (HPC).
The mark [13] stands for this setting: dose: 100.0 mg/kg/injection, schedule: Q01DX005 (ip), vehicle: Klucel (hydroxypropylcellulose) (HPC).
[14] abbreviates: dose: 50.0 mg/kg/injection, schedule: Q01DX005 (ip), vehicle: saline with Tween-80.
[15] abbreviates: dose: 100.0 mg/kg/injection, schedule: Q01DX005 (ip), vehicle: saline with Tween-80.
Setting [16] is: dose: 200.0 mg/kg/injection, schedule: Q01DX005 (ip), vehicle: saline with Tween-80.

The structures appear in SMILES notation. Where “and” joins values, the source holds several entries; their conditions need not be identical. Identical values can stand only once. Toxic doses and inconclusive results are not listed.

In the case of `Clc1c(Cl)c(C[P+](CCP(c2ccccc2)c2ccccc2)(c2ccccc2)c2ccccc2)c(Cl)c(Cl)c1C[P+](CCP(c1ccccc1)c1ccccc1)(c1ccccc1)c1ccccc1`, the T/C under setting [1] was 120 % of control.

Regarding `COC(=O)C1C2CC3c4[nH]c5cc(OC)c(Br)cc5c4CCN3CC2CC(OC(=O)c2cc(OC)c(OC)c(OC)c2)C1OC` (stereo not given), the T/C is, setting by setting: (dose: 3.75 mg/kg/injection, schedule: Q01DX005 (ip), vehicle: Klucel (hydroxypropylcellulose) (HPC)) 104 % of control; (dose: 7.5 mg/kg/injection, schedule: Q01DX005 (ip), vehicle: Klucel (hydroxypropylcellulose) (HPC)) 94 % of control; (dose: 15.0 mg/kg/injection, schedule: Q01DX005 (ip), vehicle: Klucel (hydroxypropylcellulose) (HPC)) 104 % of control; (dose: 30.0 mg/kg/injection, schedule: Q01DX005 (ip), vehicle: Klucel (hydroxypropylcellulose) (HPC)) 108 % of control.

Turning to `O=C1CCCC/C1=C\N(c1ccccc1)c1ccccc1`, the T/C is, setting by setting: under setting [2], 106 % of control; under setting [3], 98 % of control; under setting [4], 95 % of control.

On to `CCc1c(-c2ccccc2)n[nH]c1-c1[nH]nc(-c2ccccc2)c1CC`, for which the T/C reads like this: (dose: 60.0 mg/kg/injection, schedule: Q01DX005 (ip), vehicle: Klucel (hydroxypropylcellulose) (HPC)) 96 % of control; (dose: 120.0 mg/kg/injection, schedule: Q01DX005 (ip), vehicle: Klucel (hydroxypropylcellulose) (HPC)) 96 % of control; (dose: 240.0 mg/kg/injection, schedule: Q01DX005 (ip), vehicle: Klucel (hydroxypropylcellulose) (HPC)) 96 % of control.

Turning to `Cc1cc(C)c2nccc(/C=C/c3ccc(N(C)C)cc3)c2c1`, the T/C under setting [2] was 110 % of control; the T/C under setting [3] is 108 % of control; the T/C under setting [4] was 116 % of control; the T/C (dose: 400.0 mg/kg/injection, schedule: Q01DX009 (ip), vehicle: saline with Tween-80) was 91 % of control.

Regarding `CC(C)(C)OC(=O)NC(CC(=O)O)C(=O)O` (stereo not given), the T/C is, setting by setting: under setting [5], 111 % of control; under setting [6], 93 % of control; under setting [7], 104 % of control.

Consider `O=C1NC(=S)NNC12CCCCC2`, for which the T/C runs as follows: (dose: 25.0 mg/kg/injection, schedule: Q01DX009 (ip), vehicle: Klucel (hydroxypropylcellulose) (HPC)) 101 % of control; under setting [8], 101 % of control and 108 % of control; under setting [9], 112 % of control and 97 % of control; under setting [10], 105 % of control (2×) and 113 % of control.

In the case of `N#CC(CCCC(C#N)c1ccccc1)c1ccccc1` (stereo not given), the T/C was 106 % of control (dose: 50.0 mg/kg/injection, schedule: Q01DX001 (ip), vehicle: Klucel (hydroxypropylcellulose) (HPC)) and 108 % of control under setting [11].

As to `COCc1ccnn1-c1ccccc1C`, the T/C (dose: 60.0 mg/kg/injection, schedule: Q01DX005 (ip), vehicle: saline with Tween-80) is 97 % of control; the T/C (dose: 120.0 mg/kg/injection, schedule: Q01DX005 (ip), vehicle: saline with Tween-80) is 97 % of control; the T/C (dose: 240.0 mg/kg/injection, schedule: Q01DX005 (ip), vehicle: saline with Tween-80) was 104 % of control.

In the case of `O=c1cc(-c2ccc(OCc3ccccc3)cc2)oc2c(-c3c(OCc4ccccc4)cc(OCc4ccccc4)c4c(=O)cc(-c5ccc(OCc6ccccc6)cc5)oc34)c(OCc3ccccc3)cc(OCc3ccccc3)c12`, the T/C was 95 % of control under setting [11]; 92 % of control (dose: 200.0 mg/kg/injection, schedule: Q01DX001 (ip), vehicle: Klucel (hydroxypropylcellulose) (HPC)); 103 % of control (dose: 400.0 mg/kg/injection, schedule: Q01DX001 (ip), vehicle: Klucel (hydroxypropylcellulose) (HPC)).

For `CN(C=O)c1cc2c3c(c1)CCCN3CCC2`, the T/C by setting is: under setting [1], 109 % of control; (dose: 12.5 mg/kg/injection, schedule: Q04DX003 (ip), vehicle: saline with Tween-80) 100 % of control; (dose: 25.0 mg/kg/injection, schedule: Q01DX009 (ip), vehicle: saline with Tween-80) 104 % of control; (dose: 25.0 mg/kg/injection, schedule: Q04DX003 (ip), vehicle: saline with Tween-80) 90 % of control; under setting [2], 109 % of control; (dose: 50.0 mg/kg/injection, schedule: Q04DX003 (ip), vehicle: saline with Tween-80) 95 % of control.

As for `CC1(C)C(=O)C2(CCCCC2)C1N1CCCCC1` (stereo not given), the T/C runs as follows: under setting [8], 96 % of control; under setting [9], 98 % of control; under setting [10], 107 % of control.

Consider `CCOC(=O)NC(C(=O)N(C(=O)NC1CCCCC1)C1CCCCC1)C(C)C` (stereo not given), for which the T/C under setting [12] is 100 % of control; the T/C under setting [13] is 95 % of control; the T/C (dose: 200.0 mg/kg/injection, schedule: Q01DX005 (ip), vehicle: Klucel (hydroxypropylcellulose) (HPC)) was 90 % of control.

Take `CS/C(=C1/C(=O)N(c2ccccc2)N=C1c1ccccc1)N1CC1`: the T/C (dose: 100.0 mg/kg/injection, schedule: Q04DX003 (ip), vehicle: Klucel (hydroxypropylcellulose) (HPC)) was 98 % of control; the T/C (dose: 200.0 mg/kg/injection, schedule: Q04DX003 (ip), vehicle: Klucel (hydroxypropylcellulose) (HPC)) was 94 % of control; the T/C (dose: 400.0 mg/kg/injection, schedule: Q04DX003 (ip), vehicle: Klucel (hydroxypropylcellulose) (HPC)) was 95 % of control.

In the case of `COC1=C(c2c[nH]c3ccc(CC=C(C)C)cc23)C(=O)C(OC)=C(c2c[nH]c3ccc(CC=C(C)C)cc23)C1=O`, the T/C under setting [14] is 89 % of control, the T/C under setting [15] was 89 % of control and the T/C under setting [16] is 94 % of control.

With `OCCN(Cc1ccccn1)Cc1ccccn1`, the T/C is 99 % of control (dose: 7.5 mg/kg/injection, schedule: Q01DX005 (ip), vehicle: saline) and 106 % of control (dose: 15.0 mg/kg/injection, schedule: Q01DX005 (ip), vehicle: saline).

On to `CC(=O)c1c(O)cc(C)n(Cc2ccccc2)c1=O`, for which the T/C runs as follows: under setting [14], 99 % of control; under setting [15], 100 % of control; under setting [16], 99 % of control.

`O=C(O)c1cc2c(cc1S(=O)(=O)O)C1C(C3C2C2(Cl)C(Cl)=C(Cl)C3(Cl)C2(Cl)Cl)C2(Cl)C(Cl)=C(Cl)C1(Cl)C2(Cl)Cl` (stereo not given): the T/C reads like this: under setting [5], 105 % of control; under setting [6], 100 % of control; under setting [7], 100 % of control.

For `CCOC(=O)Nc1cc2c(c(N)n1)N=C(c1ccc(Cl)cc1Cl)CN2`, the T/C was 157 % of control (dose: 12.5 mg/kg/injection, schedule: Q01DX005 (ip), vehicle: saline with Tween-80) and 90 % of control (dose: 25.0 mg/kg/injection, schedule: Q01DX005 (ip), vehicle: saline with Tween-80).

For `Cc1cccc(-n2c(C)nc3c(c(C)c(C)n3-c3ccccc3)c2=N)c1`, the T/C by setting is: (dose: 6.25 mg/kg/injection, schedule: Q01DX005 (ip), vehicle: Klucel (hydroxypropylcellulose) (HPC)) 97 % of control; (dose: 12.5 mg/kg/injection, schedule: Q01DX005 (ip), vehicle: Klucel (hydroxypropylcellulose) (HPC)) 100 % of control; (dose: 25.0 mg/kg/injection, schedule: Q01DX005 (ip), vehicle: Klucel (hydroxypropylcellulose) (HPC)) 99 % of control.

Turning to `CCOC(=O)N(CCCl)C(=O)C(C)C`, the T/C was 104 % of control (dose: 100.0 mg/kg/injection, schedule: Q01DX001 (ip), vehicle: saline with Tween-80); 100 % of control (dose: 200.0 mg/kg/injection, schedule: Q01DX001 (ip), vehicle: saline with Tween-80); 104 % of control (dose: 400.0 mg/kg/injection, schedule: Q01DX001 (ip), vehicle: saline with Tween-80).

Take `CN(C)CC[CH2][Sn]([CH3])([Br])[Br]`: the T/C (dose: 1.56 mg/kg/injection, schedule: Q01DX009 (ip), vehicle: saline) is 100 % of control and 101 % of control.

`Cc1nn(-c2ccccc2)c([O-])c1[N+]#N`: the T/C runs as follows: (dose: 100.0 mg/kg/injection, schedule: Q04DX002 (ip), vehicle: Klucel (hydroxypropylcellulose) (HPC)) 102 % of control; (dose: 200.0 mg/kg/injection, schedule: Q04DX002 (ip), vehicle: Klucel (hydroxypropylcellulose) (HPC)) 102 % of control; (dose: 400.0 mg/kg/injection, schedule: Q04DX002 (ip), vehicle: Klucel (hydroxypropylcellulose) (HPC)) 100 % of control.

Regarding `CC1CC(=O)c2cc3oc(=O)n(C)c3cc21` (stereo not given), the T/C was 105 % of control under setting [12] and 94 % of control under setting [13].
